Test results from the NIST ThermoML archive (doi:10.1021/acs.jced.5b00675).

Conditions: Liquid, Closed cell (Static) method

FCC(F)(F)F [1,1,1,2-tetrafluoroethane]
Conditions | vapor or sublimation pressure [kPa]
258.2 K | 162
262.2 K | 193
272.2 K | 286
282.6 K | 411
292.9 K | 569
302.7 K | 763
